In experiment [1] the test system is bifidobacteria. The following applies: known from Non-patent documents 7 and 8; cited from earlier work.
Experiment [2] concerns Bifidobacterium bacteria. As to the kind of experiment: Human fecal culture system, relative abundance by 16S V3-V4 amplicon sequencing (Test Example 1). In kind it is cell-based. The settings on record: 1% substance; for Change in relative abundance of Bifidobacterium bacteria: feces of two healthy adults, 2 days at 37° C., anaerobic, pH 6.5, versus control without substance. Here is the method:
(§1) Each substance to be evaluated was added at a concentration of 1% to a diluted fecal solution in which feces of healthy adult origin were suspended in the GAM Semisolid without Dextrose “Nissui” (Nissui Pharmaceutical Co., Ltd.) for GAM glycolysis from which agar was removed by filtration. Fecal materials of two individuals were each tested without mixing them. The medium used for the test was allowed to stand in an anaerobic glove box at least overnight before use. For the culture, a microbioreactor BioLector Pro […]-Labs) and a plate with microfluidic channels were used, and the culture was performed for 2 days at 37° C. and 600 rpm in an anaerobic environment while maintaining a constant pH of 6.5 with 1.5 N HCl and sodium hydroxide during the culture. The prebiotic abilities of the added substances were evaluated by comparing the bacterial flora obtained after the culture with that obtained under the control condition in which the substances to be evaluated were not added. DNA was extracted and purified from the diluted fecal solutions after the culture by using Maxwell RSC PureFood GMO & Authentication Kit (Promega), and amplicon sequencing of the V3-V4 region was performed by using MiSeq (Illumina). The resulting fastq files were analyzed with QIIME2 (https://quime2.org/) to calculate the relative abundance of each intestinal bacterium.

The test system of experiment [3] is Parabacteroides bacteria. The description is as above. In kind it is cell-based. The settings on record: 1% substance, feces of two healthy adults, 2 days at 37° C., anaerobic, pH 6.5, versus control without substance. The method, then: as §1
In experiment [4] the target is T1, lactase (Kluyveromyces lactis, UniProt P00723).
T1 construct: purchased Godo Shusei Co., Ltd. GODO-YNL
T1 sequence (P00723 whole entry): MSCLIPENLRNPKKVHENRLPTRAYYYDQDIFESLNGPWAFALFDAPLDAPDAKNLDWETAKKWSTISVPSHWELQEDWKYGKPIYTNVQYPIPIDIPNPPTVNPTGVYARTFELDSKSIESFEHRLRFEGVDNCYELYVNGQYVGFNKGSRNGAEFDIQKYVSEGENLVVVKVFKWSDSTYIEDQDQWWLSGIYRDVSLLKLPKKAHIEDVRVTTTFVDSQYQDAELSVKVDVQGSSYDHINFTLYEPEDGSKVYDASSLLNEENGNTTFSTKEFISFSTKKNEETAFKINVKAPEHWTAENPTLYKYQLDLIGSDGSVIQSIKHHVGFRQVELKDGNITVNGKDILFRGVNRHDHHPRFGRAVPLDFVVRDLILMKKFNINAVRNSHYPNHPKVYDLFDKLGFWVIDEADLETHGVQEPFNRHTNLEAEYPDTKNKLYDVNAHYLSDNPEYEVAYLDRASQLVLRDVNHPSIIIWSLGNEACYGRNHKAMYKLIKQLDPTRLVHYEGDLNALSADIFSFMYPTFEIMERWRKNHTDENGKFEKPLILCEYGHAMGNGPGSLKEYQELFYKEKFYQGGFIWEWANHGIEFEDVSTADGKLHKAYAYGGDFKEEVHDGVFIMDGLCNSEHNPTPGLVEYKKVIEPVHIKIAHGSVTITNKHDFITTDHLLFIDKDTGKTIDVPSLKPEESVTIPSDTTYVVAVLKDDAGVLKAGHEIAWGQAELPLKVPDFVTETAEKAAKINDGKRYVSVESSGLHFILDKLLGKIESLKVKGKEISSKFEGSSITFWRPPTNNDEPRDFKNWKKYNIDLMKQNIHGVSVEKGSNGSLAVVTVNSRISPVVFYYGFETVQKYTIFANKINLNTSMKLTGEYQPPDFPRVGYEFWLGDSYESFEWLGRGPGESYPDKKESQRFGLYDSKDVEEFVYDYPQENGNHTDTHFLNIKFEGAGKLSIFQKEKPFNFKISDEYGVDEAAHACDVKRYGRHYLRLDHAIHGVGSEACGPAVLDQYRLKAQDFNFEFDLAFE
As to the kind of experiment: Lactase treatment of the trisaccharide fraction, LCMS analysis. The settings on record: 10% in phosphate-citrate buffer pH 6.5, 0.1% lactase (GODO-YNL), 40° C. In kind it is biochemical. Here is the method: The purified trisaccharide fraction was lyophilized and dissolved in a phosphate-citrate buffer, pH 6.5 at a concentration of 10%. Then, 0.1% of lactase (product name GODO-YNL, Godo Shusei Co., Ltd.) was added to the solution, and the enzymatic reaction was allowed at 40° C.

Experiment [5] has as its system Parabacteroides bacteria. As to the kind of experiment: Human fecal culture, 60 subjects, genus-level analysis (Test Example 3). The experiment is classed as cell-based. The settings on record: 0.25% substance, n=60 fecal samples, 1 day at 37° C., anaerobic, versus distilled water; Wilcoxon's signed rank test, p=3.59×10^−8. Here is the method:
Galactosylkojibiose (trisaccharide fraction) was added at a concentration of 0.25% to a diluted fecal solution in which feces of healthy adult origin were suspended in the GAM Semisolid without Dextrose “Nissui” (Nissui Pharmaceutical Co., Ltd.) from which agar was removed by filtration (n=60). The galactosylkojibiose (trisaccharide fraction) was the fractionated and purified product containing 4′-galactosylkojibiose as the main ingredient prepared in Production Example 2. The fecal samples for 60 subjects were aliquoted under refrigerated conditions immediately after excretion and frozen at −80° C. until use. The test was performed for each of the fecal samples without mixing them. The medium used for the test was allowed to stand in an anaerobic glove box at least overnight before use. For the culture, a 96-well deepwell plate was used, and the culture was performed for 1 day at 37° C. in an anaerobic environment. The prebiotic ability of the added evaluation substance was evaluated by comparing the bacterial flora observed after the culture with that obtained under the control condition in which distilled water was added instead of the evaluation substance. […] The resulting fastq files were analyzed with QIIME2 (https://qiime2.org/) to calculate the relative abundance of each intestinal bacterium.

In experiment [6] the test system is Parabacteroides distasonis. As to the kind of experiment: Human fecal culture, 60 subjects, species-level analysis (Test Example 3). The following applies: 0.25% substance, n=60 fecal samples, 1 day at 37° C., anaerobic, versus distilled water; Wilcoxon's signed rank order test, p=2.07×10^−8. The experiment is classed as cell-based. The method, then:
Galactosylkojibiose (trisaccharide fraction) was added at a concentration of 0.25% to a diluted fecal solution in which feces of healthy adult origin were suspended in the GAM Semisolid without Dextrose “Nissui” (Nissui Pharmaceutical Co., Ltd.) from which agar was removed by filtration (n=60). The galactosylkojibiose (trisaccharide fraction) was the fractionated and purified product containing 4'-galactosylkojibiose as the main ingredient prepared in Production Example 2. The fecal samples for 60 subjects were aliquoted under refrigerated conditions immediately after excretion and frozen at -80° C. until use. The test was performed for each of the fecal samples without mixing them. The medium used for the test was allowed to stand in an anaerobic glove box at least overnight before use. […] The prebiotic ability of the added evaluation substance was evaluated by comparing the bacterial flora observed after the culture with that obtained under the control condition in which distilled water was added instead of the evaluation substance. […] The resulting fastq files were analyzed with QIIME2 (https://qiime2.org/) to calculate the relative abundance of each intestinal bacterium. […] The resulting fastq files were analyzed with QIIME2 (https://qiime2.org/), and confirmed that it was classified as that of […] at the bacterial species level. […]

The source of these data is patent US20260060993A1, “COMPOSITION FOR IMPROVEMENT OF INTESTINAL FLORA” (MEIJI CO., LTD., priority 2022, published 2026).

“Also recorded” adds a separate entry of the source.

Take `OCC1OC(O)C(O[C@H]2OC(CO)[C@@H](O)[C@H](O)C2O)[C@@H](O)[C@@H]1O` (stereo partly drawn) [kojibiose]: the “Effect on growth of bifidobacteria” value in experiment [1] is “growth-promoting effect”. Besides, the “Change in relative abundance of Bifidobacterium bacteria” value in experiment [2] was “increased”. The “Change in relative abundance of Parabacteroides bacteria” value in experiment [3] is on record as “increase”.

Regarding `OCC1O[C@H](OC2C(O)[C@H](O[C@@H]3OC(CO)[C@H](O)C(O)C3O)C(CO)O[C@H]2O)C(O)C(O)[C@@H]1O` (stereo partly drawn) [α-D-Glcp-(1→2)-[β-D-Galp-(1→4)-]D-Glcp], in experiment [4], the “Product formed by lactase treatment” value is “formation of kojibiose”. Moreover, the “Increase of relative abundance of Bifidobacterium bacteria compared with kojibiose” value in experiment [2] (all samples of the two subjects, comparison with kojibiose) is listed as “more significantly increased”. Besides, the “Change in relative abundance of Bifidobacterium bacteria” value in experiment [2] is given as “increased”. In addition, the “Change in relative abundance of Parabacteroides bacteria” value in experiment [3] is “increase”. In experiment [5], the “Change in relative abundance of Parabacteroides bacteria (genus level)” value is given as “significant increase”. Moreover, the “Change in relative abundance of species indicated as “Parabacteroides_” (judged Parabacteroides distasonis)” value in experiment [6] is on record as “significant increase; also recorded: significantly increased”.
